This assay deals with full-length human ATR protein (Homo sapiens (Human), UniProt Q13535). The assay is described as follows: Binding assay ATR (TR-FRET tracer displacement). Particulars: TR-FRET. The gist of the method: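 Full-length human GST-ATR co-purified with ATRIP, pre-complexed 30 min at 22 °C with anti-GST-Tb antibody, then pre-bound with compound 10 min. Tracer A or B added (2 µl of 100 nM solution), 30 min at 22 °C.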
On the technique in general: TR-FRET usually uses a lanthanide donor and a delayed reading to cut background.

[1] abbreviates: tracer A, read-out: ATR binding (tracer A) IC50.
[2] abbreviates: tracer B, read-out: ATR binding (tracer B) IC50.

Broadly, the IC50 is the point on the concentration scale where inhibition reaches its midpoint.

Where two headings read alike, the source gives them in different places.

Chain of full-length human ATR protein (Q13535 other isoform, or with tags, fused parts or gaps): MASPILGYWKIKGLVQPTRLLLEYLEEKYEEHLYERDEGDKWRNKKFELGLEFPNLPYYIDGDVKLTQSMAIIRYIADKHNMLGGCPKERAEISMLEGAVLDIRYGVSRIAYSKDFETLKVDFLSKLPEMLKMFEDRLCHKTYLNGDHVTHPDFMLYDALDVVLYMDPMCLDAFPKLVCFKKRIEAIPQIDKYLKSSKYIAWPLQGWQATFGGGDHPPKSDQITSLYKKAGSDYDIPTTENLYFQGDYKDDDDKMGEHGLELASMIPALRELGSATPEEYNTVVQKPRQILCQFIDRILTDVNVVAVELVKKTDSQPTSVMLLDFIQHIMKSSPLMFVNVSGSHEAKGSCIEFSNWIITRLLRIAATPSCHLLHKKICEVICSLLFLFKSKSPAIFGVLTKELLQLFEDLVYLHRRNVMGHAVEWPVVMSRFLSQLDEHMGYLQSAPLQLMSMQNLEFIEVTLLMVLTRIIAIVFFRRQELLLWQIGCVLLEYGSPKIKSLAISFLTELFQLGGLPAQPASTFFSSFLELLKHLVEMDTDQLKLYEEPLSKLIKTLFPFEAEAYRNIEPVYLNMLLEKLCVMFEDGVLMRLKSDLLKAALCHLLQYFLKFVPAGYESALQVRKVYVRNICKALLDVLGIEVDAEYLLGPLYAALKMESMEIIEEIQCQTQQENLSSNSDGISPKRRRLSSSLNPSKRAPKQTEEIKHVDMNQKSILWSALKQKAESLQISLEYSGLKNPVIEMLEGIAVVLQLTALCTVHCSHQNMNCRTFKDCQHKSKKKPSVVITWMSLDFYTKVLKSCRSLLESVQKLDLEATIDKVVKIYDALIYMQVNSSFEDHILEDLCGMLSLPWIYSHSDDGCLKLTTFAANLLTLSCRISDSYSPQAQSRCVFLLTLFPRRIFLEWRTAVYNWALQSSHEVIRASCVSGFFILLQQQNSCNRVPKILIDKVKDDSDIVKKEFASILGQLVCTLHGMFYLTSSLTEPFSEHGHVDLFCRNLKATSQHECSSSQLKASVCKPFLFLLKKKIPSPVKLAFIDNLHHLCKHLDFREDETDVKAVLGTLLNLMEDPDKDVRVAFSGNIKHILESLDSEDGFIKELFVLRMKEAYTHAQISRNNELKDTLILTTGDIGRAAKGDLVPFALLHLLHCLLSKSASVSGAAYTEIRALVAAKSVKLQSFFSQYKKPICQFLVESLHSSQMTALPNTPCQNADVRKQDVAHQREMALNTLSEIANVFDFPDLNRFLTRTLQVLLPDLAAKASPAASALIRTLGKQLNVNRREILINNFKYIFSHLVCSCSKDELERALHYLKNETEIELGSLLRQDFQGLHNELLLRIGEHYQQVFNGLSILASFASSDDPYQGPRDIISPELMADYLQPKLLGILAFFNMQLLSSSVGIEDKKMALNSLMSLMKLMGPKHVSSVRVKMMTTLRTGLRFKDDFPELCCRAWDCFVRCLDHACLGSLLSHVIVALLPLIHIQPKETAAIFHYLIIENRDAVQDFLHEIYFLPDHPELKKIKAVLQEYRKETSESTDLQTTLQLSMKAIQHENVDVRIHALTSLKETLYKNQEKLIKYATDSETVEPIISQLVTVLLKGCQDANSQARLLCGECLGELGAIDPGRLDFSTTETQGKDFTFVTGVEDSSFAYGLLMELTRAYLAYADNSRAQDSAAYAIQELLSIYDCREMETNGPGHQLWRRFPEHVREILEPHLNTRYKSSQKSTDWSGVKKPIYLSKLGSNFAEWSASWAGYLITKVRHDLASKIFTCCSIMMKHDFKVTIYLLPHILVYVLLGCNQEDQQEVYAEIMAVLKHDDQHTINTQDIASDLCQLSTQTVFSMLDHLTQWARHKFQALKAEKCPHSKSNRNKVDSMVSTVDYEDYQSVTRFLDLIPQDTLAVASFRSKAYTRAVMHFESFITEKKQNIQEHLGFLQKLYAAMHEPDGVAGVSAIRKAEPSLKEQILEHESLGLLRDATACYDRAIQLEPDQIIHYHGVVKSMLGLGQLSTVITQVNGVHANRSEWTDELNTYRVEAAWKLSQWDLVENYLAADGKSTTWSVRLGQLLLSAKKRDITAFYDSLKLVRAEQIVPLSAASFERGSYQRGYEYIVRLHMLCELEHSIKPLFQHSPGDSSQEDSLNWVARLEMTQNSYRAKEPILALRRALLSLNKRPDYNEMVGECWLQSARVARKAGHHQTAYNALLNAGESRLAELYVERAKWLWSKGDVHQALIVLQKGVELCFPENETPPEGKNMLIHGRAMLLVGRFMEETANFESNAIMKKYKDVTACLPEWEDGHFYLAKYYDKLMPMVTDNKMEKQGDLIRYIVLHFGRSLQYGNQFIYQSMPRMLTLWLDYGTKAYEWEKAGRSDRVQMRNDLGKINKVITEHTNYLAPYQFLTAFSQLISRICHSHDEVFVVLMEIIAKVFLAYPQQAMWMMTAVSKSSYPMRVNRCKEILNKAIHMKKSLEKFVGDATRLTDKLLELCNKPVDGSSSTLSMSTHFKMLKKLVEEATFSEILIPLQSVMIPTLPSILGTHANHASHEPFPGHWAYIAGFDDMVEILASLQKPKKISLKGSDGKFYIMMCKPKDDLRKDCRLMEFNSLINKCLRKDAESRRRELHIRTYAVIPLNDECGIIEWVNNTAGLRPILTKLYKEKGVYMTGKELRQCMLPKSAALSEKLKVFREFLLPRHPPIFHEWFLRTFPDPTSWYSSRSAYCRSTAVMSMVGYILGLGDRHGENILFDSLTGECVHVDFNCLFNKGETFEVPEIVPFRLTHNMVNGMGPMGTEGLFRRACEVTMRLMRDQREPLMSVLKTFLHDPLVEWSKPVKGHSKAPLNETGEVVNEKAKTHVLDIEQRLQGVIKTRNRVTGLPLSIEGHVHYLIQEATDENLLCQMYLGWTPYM
Chain of full-length human ATR protein (Q8WXE1 other isoform, or with tags, fused parts or gaps partner): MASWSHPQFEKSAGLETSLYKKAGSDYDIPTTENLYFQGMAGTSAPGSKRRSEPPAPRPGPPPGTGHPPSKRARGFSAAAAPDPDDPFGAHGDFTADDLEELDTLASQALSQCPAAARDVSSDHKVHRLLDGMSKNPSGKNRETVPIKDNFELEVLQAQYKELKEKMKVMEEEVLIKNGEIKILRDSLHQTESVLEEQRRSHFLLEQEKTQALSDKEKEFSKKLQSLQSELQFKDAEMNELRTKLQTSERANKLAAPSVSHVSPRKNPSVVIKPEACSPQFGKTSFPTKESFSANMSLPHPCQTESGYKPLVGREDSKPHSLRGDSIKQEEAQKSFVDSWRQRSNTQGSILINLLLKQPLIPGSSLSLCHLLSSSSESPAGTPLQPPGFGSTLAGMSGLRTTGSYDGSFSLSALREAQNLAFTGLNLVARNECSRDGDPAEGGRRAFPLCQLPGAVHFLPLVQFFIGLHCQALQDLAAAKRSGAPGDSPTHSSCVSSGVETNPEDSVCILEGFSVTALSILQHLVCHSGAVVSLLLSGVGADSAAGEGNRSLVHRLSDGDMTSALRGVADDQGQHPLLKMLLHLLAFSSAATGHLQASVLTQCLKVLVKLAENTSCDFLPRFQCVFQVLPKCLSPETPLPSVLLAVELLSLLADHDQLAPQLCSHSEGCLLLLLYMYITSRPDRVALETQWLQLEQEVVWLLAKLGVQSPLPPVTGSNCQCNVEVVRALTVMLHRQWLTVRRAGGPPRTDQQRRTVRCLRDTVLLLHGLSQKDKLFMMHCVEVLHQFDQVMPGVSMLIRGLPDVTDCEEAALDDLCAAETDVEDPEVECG

Consider `c1cc(-c2cc(N3CCOCC3)nc3c(-c4ccn[nH]4)nccc23)ccn1` [Example 221, 2-(morpholin-4-yl)-8-(1H-pyrazol-5-yl)-4-(pyridin-4-yl)-1,7-naphthyridine], for which the IC50 under setting [1] was determined as 196 nM.
On to `C[C@@H]1COCCN1c1cc(N2CCOCC2)c2ccnc(-c3ccn[nH]3)c2n1` [Example 145, 2-[(3R)-3-methylmorpholin-4-yl]-4-(morpholin-4-yl)-8-(1H-pyrazol-5-yl)-1,7-naphthyridine], for which the IC50 under setting [1] is 18.2 nM.
Regarding `CCS(=O)(=O)N1CCN(c2cc(N3CCOCC3)nc3c(-c4ccn[nH]4)nccc23)CC1` [Example 433, 4-[4-(ethylsulfonyl)piperazin-1-yl]-2-(morpholin-4-yl)-8-(1H-pyrazol-5-yl)-1,7-naphthyridine], the half-inhibitory concentration (IC50) under setting [1] is 41.6 nM.
On the same count and under the same terms, with `CN(c1ccc(F)cc1)c1cc(N2CCOCC2)nc2c(-c3ccn[nH]3)nccc12` [Example 431, N-(4-fluorophenyl)-N-methyl-2-(morpholin-4-yl)-8-(1H-pyrazol-5-yl)-1,7-naphthyridin-4-amine] the figure was 34.7 nM.
Same read-out and setting: in the case of `Cc1ccc(-c2cc(N3CCOC[C@H]3C)nc3c(-c4ccn[nH]4)nccc23)c(F)n1` [Example 93, 4-(2-fluoro-6-methylpyridin-3-yl)-2-[(3R)-3-methylmorpholin-4-yl]-8-(1H-pyrazol-5-yl)-1,7-naphthyridine] it was 10.9 nM; in that of `COCCS(C)(=O)=Nc1cc(N2CCOC[C@H]2C)nc2c(-c3ccn[nH]3)nccc12` (stereo partly drawn) [Example 274, 4-{[(2-methoxyethyl)(methyl)oxido-λ^6-sulfanylidene]amino}-2-[(3R)-3-methylmorpholin-4-yl]-8-(1H-pyrazol-5-yl)-1,7-naphthyridine], 62.7 nM.
Same read-out and setting: with `C[C@@H]1COCCN1c1cc(-c2cncc(Cl)c2)c2ccnc(-c3ccn[nH]3)c2n1` [Example 130, 4-(5-chloropyridin-3-yl)-2-[(3R)-3-methylmorpholin-4-yl]-8-(1H-pyrazol-5-yl)-1,7-naphthyridine] the figure was 21.6 nM; with `CCCN(C)c1cc(N2CCOCC2)nc2c(-c3ccn[nH]3)nccc12` [Example 412, N-methyl-2-(morpholin-4-yl)-N-propyl-8-(1H-pyrazol-5-yl)-1,7-naphthyridin-4-amine], 162 nM.
With `C[C@@H]1COCCN1c1cc(-c2cccn2C)c2ccnc(-c3ccn[nH]3)c2n1` [Example 91, 2-[(3R)-3-methylmorpholin-4-yl]-4-(1-methyl-1H-pyrrol-2-yl)-8-(1H-pyrazol-5-yl)-1,7-naphthyridine], under setting [1], the IC50 was 10 nM.
Same read-out and setting: with `c1cc(-c2nccc3c(N4CCCCC4)cc(N4CCOCC4)nc23)[nH]n1` [Example 408, 2-(morpholin-4-yl)-4-(piperidin-1-yl)-8-(1H-pyrazol-5-yl)-1,7-naphthyridine] the figure was 65.1 nM; with `Cc1nn(C)c(C)c1-c1cc(N2CCOC[C@H]2C)nc2c(-c3ccn[nH]3)nccc12` [Example 258, 2-[(3R)-3-methylmorpholin-4-yl]-8-(1H-pyrazol-5-yl)-4-(1,3,5-trimethyl-1H-pyrazol-4-yl)-1,7-naphthyridine], 7.66 nM.
The same measure, in the same setting: in the case of `OCC1CCN(c2cc(N3CCOCC3)nc3c(-c4ccn[nH]4)nccc23)CC1` [Example 429, {1-[2-(morpholin-4-yl)-8-(1H-pyrazol-5-yl)-1,7-naphthyridin-4-yl]piperidin-4-yl}methanol] it was 44.8 nM; in that of `CN(c1cccc(F)c1)c1cc(N2CCOCC2)nc2c(-c3ccn[nH]3)nccc12` [Example 424, N-(3-fluorophenyl)-N-methyl-2-(morpholin-4-yl)-8-(1H-pyrazol-5-yl)-1,7-naphthyridin-4-amine], 241 nM; in that of `CS(=O)(=NC#N)c1ccc(-c2cc(N3CCOCC3)nc3c(-c4ccn[nH]4)nccc23)cc1` (stereo not drawn) [Example 191, (methyl{4-[2-(morpholin-4-yl)-8-(1H-pyrazol-5-yl)-1,7-naphthyridin-4-yl]phenyl}oxido-λ^6-sulfanylidene)cyanamide], 44.1 nM.
Consider `C[C@@H]1COCCN1c1cc(N=S2(=O)CCCC2)c2ccnc(-c3ccn[nH]3)c2n1` [Example 137, N-{2-[(3R)-3-methylmorpholin-44-yl]-8-(1H-pyrazol-5-yl)-1,7-naphthyridin-4-yl}tetrahydro-1H-1λ^4-thiophen-1-imine 1-oxide], for which, under setting [1], the concentration for half-maximal inhibition (IC50) is 26 nM.
On the same count and under the same terms, with `Fc1cnccc1-c1cc(N2CCOCC2)nc2c(-c3ccn[nH]3)nccc12` [Example 365, 4-(3-fluoropyridin-4-yl)-2-(morpholin-4-yl)-8-(1H-pyrazol-5-yl)-1,7-naphthyridine] the figure was 103 nM; with `C[C@@H]1COCCN1c1cc(N)c2ccnc(-c3ccn[nH]3)c2n1` [Example 267, 2-[(3R)-3-methylmorpholin-4-yl]-8-(1H-pyrazol-5-yl)-1,7-naphthyridin-4-amine], 1010 nM.
Take `C=C(C)c1cc(N2CCOCC2)nc2c(-c3cc[nH]n3)nccc12` [Example 10, 4-isopropenyl-2-(morpholin-4-yl)-8-(1H-pyrazol-3-yl)-[1,7]naphthyridine]: the concentration for half-maximal inhibition (IC50) under setting [1] is 126 nM and the IC50 under setting [2] came to 43.9 nM.
In the same order, the values of `C[C@@H]1COCCN1c1cc(-c2cccc(S(C)(=O)=O)c2)c2ccnc(-c3cc[nH]n3)c2n1` [Example 28, 4-(3-methanesulphonylphenyl)-2-((R)-3-methylmorpholin-4-yl)-8-(2H-pyrazol-3-yl)-[1,7]naphthyridine] are 17.6 nM and 8.4 nM.
Take `c1ccc2c(-c3cc(N4CCOCC4)nc4c(-c5ccn[nH]5)nccc34)cncc2c1` [Example 363, 4-(isoquinolin-4-yl)-2-(morpholin-4-yl)-8-(1H-pyrazol-5-yl)-1,7-naphthyridine]: the half-maximal inhibitory concentration (IC50) under setting [1] was found to be 191 nM.
As for `CC(C)S(=N)(=O)c1ccc(-c2cc(N3CCOCC3)nc3c(-c4ccn[nH]4)nccc23)cc1` (stereo not drawn) [Example 25, 2-(morpholin-4-yl)-4-{4-[S-(propan-2-yl)sulfonimidoyl]phenyl}-8-(1H-pyrazol-5-yl)-1,7-naphthyridine], the IC50 amounted to 110 nM under setting [1] and 75.1 nM under setting [2].
Turning to `COC(=O)c1ccc(-c2cc(N3CCOC[C@H]3C)nc3c(-c4ccn[nH]4)nccc23)[nH]1` [Example 120, Methyl 5-{2-[(3R)-3-methylmorpholin-4-yl]-8-(1H-pyrazol-5-yl)-1,7-naphthyridin-4-yl}-1H-pyrrole-2-carboxylate], the IC50 under setting [1] worked out at 13.1 nM.
With `NC(=O)[C@H]1CCCN1c1cc(N2CCOCC2)nc2c(-c3ccn[nH]3)nccc12` (stereo in doubt) [Example 428, 1-[2-(morpholin-4-yl)-8-(1H-pyrazol-5-yl)-1,7-naphthyridin-4-yl]-prolinamide], under setting [1], the IC50 came to 69.8 nM.
Still for that read-out and setting: in the case of `O=C1OCCN1c1cc(N2CCOCC2)nc2c(-c3ccn[nH]3)nccc12` [Example 226, 3-[2-(morpholin-4-yl)-8-(1H-pyrazol-5-yl)-1,7-naphthyridin-4-yl]-1,3-oxazolidin-2-one] it was 1140 nM; in that of `C[C@@H]1COCCN1c1cc(-c2cncc3ccccc23)c2ccnc(-c3ccn[nH]3)c2n1` [Example 237, 4-(isoquinolin-4-yl)-2-[(3R)-3-methylmorpholin-4-yl]-8-(1H-pyrazol-5-yl)-1,7-naphthyridine], 18.2 nM.
On the same count and under the same terms, in the case of `C[C@@H]1COCCN1c1cc(-c2ccn(CC(C)(C)O)n2)c2ccnc(-c3ccn[nH]3)c2n1` [Example 161, 2-methyl-1-(3-{2-[(3R)-3-methylmorpholin-4-yl]-8-(1H-pyrazol-5-yl)-1,7-naphthyridin-4-yl}-1H-pyrazol-1-yl)propan-2-ol] it was 62.6 nM.
In the case of `CC(C)Nc1cc(N2CCOCC2)nc2c(-c3ccn[nH]3)nccc12` [Example 208, 2-(morpholin-4-yl)-N-(propan-2-yl)-8-(1H-pyrazol-5-yl)-1,7-naphthyridin-4-amine], the IC50 under setting [1] is 1160 nM.
For the compound `C[C@@H]1COCCN1c1cc(C2=CCNCC2)c2ccnc(-c3ccn[nH]3)c2n1` [Example 245, 2-[(3R)-3-methylmorpholin-4-yl]-8-(1H-pyrazol-5-yl)-4-(1,2,3,6-tetrahydropyridin-4-yl)-1,7-naphthyridine], under setting [1], the IC50 stood at 32 nM.
The same measure, in the same setting: in the case of `C[C@@H]1COCCN1c1cc(-c2cc(C(F)(F)F)nn2C)c2ccnc(-c3ccn[nH]3)c2n1` [Example 98, 2-[(3R)-3-methylmorpholin-4-yl]-4-[1-methyl-3-(trifluoromethyl)-1H-pyrazol-5-yl]-8-(1H-pyrazol-5-yl)-1,7-naphthyridine] it was 13.1 nM.
`Clc1cc(Cl)cc(-c2cc(N3CCOCC3)nc3c(-c4ccn[nH]4)nccc23)c1` [Example 344, 4-(3,5-dichlorophenyl)-2-(morpholin-4-yl)-8-(1H-pyrazol-5-yl)-1,7-naphthyridine]: the IC50 under setting [1] was 174 nM.
Same read-out and setting: with `C1=CCN(c2cc(N3CCOCC3)nc3c(-c4ccn[nH]4)nccc23)C1` [Example 417, 4-(2,5-dihydro-1H-pyrrol-1-yl)-2-(morpholin-4-yl)-8-(1H-pyrazol-5-yl)-1,7-naphthyridine] the figure was 1070 nM.
As to `CS(=O)(=O)Cc1cc(N2CCOCC2)nc2c(-c3ccn[nH]3)nccc12` [Example 37, 4-methanesulphonylmethyl-2-morpholin-4-yl-8-(2H-pyrazol-3-yl)-[1,7]naphthyridine], the half-inhibitory concentration (IC50) came out at 170 nM under setting [1] and 127 nM under setting [2].
For `CCC(O)(CC)c1cc(N2CCOC[C@H]2C)nc2c(-c3ccn[nH]3)nccc12` [Example 129, 3-{2-[(3R)-3-methylmorpholin-4-yl]-8-(1H-pyrazol-5-yl)-1,7-naphthyridin-4-yl}pentan-3-ol], the IC50 under setting [1] was determined as 35.3 nM.
For the compound `CC(C)Sc1cc(N2CCOCC2)nc2c(-c3ccn[nH]3)nccc12` [Example 210, 2-(morpholin-4-yl)-4-(propan-2-ylsulfanyl)-8-(1H-pyrazol-5-yl)-1,7-naphthyridine], the IC50 under setting [1] is 231 nM.
As for `CCn1cc(-c2cc(N3CCOC[C@H]3C)nc3c(-c4ccn[nH]4)nccc23)cn1` [Example 261, 4-(1-ethyl-1H-pyrazol-4-yl)-2-[(3R)-3-methylmorpholin-4-yl]-8-(1H-pyrazol-5-yl)-1,7-naphthyridine], under setting [1], the IC50 amounted to 29.2 nM.

The values are drawn from US9549932B2, “2-(morpholin-4-yl)-1,7-naphthyridines” (BAYER PHARMA AKTIENGESELLSCHAFT, priority 2014, dated 2017).
